Assay results as given in the NIST ThermoML archive (doi:10.1021/je3002514).
Numbers after ± are expanded uncertainties.

Conditions: Crystal; visual observation

SMILES	Normal melting temperature
CCCC[N+](C)(CCCC)CCCC.COS(=O)(=O)[O-] [N,N-dibutyl-N-methyl-1-butanaminium methyl sulfate]	62.0 ± 2 °C
CCCC[P+](C)(CCCC)CCCC.COS(=O)(=O)[O-] [tributylmethylphosphonium methyl sulfate]	38.0 ± 2 °C
